Measurements from ChEMBL document CHEMBL1158137, “Absolute configuration of sporotricale and structure of 6-hydroxysporotricale” (J Nat Prod, 2006).
Active and inactive are the calls of the source. The rule behind the calls is not given here.

What was measured:
[1] = organism: Gallus gallus; assay: Antiangiogenic activity against bFGF-induced angiogenesis in chick embryo chorioallantoic membrane; format: functional, tissue-based
[2] = test system: BMEC; assay: Cytotoxicity against bovine microvascular endothelial cells; format: cell-based, Bos taurus; conditions: cattle

SMILES | Activity [1] | Activity [2]
COc1cc(O)c(O)c2c1C(=O)O[C@@H]2CCCCCCCCCC1(O)CC[C@@H](C)O1 (stereo partly specified) | Active | Non-toxic
COc1cc(O)cc2c1C(=O)O[C@@H]2CCCCC[C@@H]1CCC[C@]2(CC[C@@H](C)O2)O1 | Active | Non-toxic
COc1cc(O)cc2c1C(=O)O[C@@H]2CCCCCCCCCC1(O)CC[C@@H](C)O1 (stereo partly specified) | Active | Non-toxic
